Data as given in US20260315507A1, “COMBINATION OF VITAMINS AND OLIGOSACCHARIDES FOR ENHANCING BONE GROWTH AND/OR BONE STRENGTH” (SOCIÉTÉ DES PRODUITS NESTLÉ S.A., priority 2023, published 2026).

Tests used:
[1] = test system: osteocalcin mRNA in MC3T3-E1 subclone 4 cells; assay: Osteocalcin mRNA levels (qPCR) in pre-osteoblastic cell line; format: cell-based; details: 21 days of differentiation, without ascorbic acid; 3 μM menaquinone-7, 1 nM 1α,25-dihydroxyvitamin D3 or 100 nM all-trans-retinoic acid; FIG. 1B
Source text: (§1) The pre-osteoblastic cell line MC3T3-E1 subclone 4 (CRL-2593) was purchased from ATCC (Manassas; Virginia, USA). Cells were maintained in growth medium (GM) composed of ascorbic acid-free αMEM (ThermoFisher Scientific), supplemented with 10% fetal calf serum (FCS, ThermoFisher Scientific) and 1% penicillin/streptomycin. All culture media were refreshed every 2-3 days. Cells were passaged with trypsin/EDTA solution at less than 80% confluence. To induce differentiation into osteoblasts, cells were seeded at 5×10^4 cells/cm^2 and grown to confluency in GM for 24 h. Then, the medium was switched to differentiation medium (DM) composed of GM supplemented with 10 mM β-glycerophosphate and treatment solutions of interest. Ascorbic acid 50 μg/ml was also added to the DM depending on the experiment.
MC3T3-E1 subclone 4 cells were differentiated for 21 days (in DM without ascorbic acid except for the positive control) or 28 days (in DM containing ascorbic acid). Cells were then collected for gene expression analysis. […] RNA concentrations were measured using the DropSense96 (TRINEAN, Gentbrugge, Belgium).
cDNAs were synthetized using High-Capacity cDNA Reverse Transcription Kit (AppliedBiosystems; Waltham, Massachusetts, USA) according to the manufacturer's instructions. […] The relative gene expression was evaluated via the 2^-ΔCt method.

[2] = test system: MC3T3-E1 subclone 4 cells; assay: Osteoblast alkaline phosphatase (ALP) activity in pre-osteoblastic cell line; format: cell-based; details: 7 days of differentiation, without ascorbic acid; 3 μM menaquinone-7, 1 nM 1α,25-dihydroxyvitamin D3 or 100 nM all-trans-retinoic acid; FIG. 1A
Source text: as §1, with “experiment. […]” for “experiment.”
After 7 days of differentiation, cells were then collected for alkaline phosphatase (ALP) activity measurement as described previously with minor modifications. […] Enzymatic reaction was monitored at 405 nm after 4-Nitrophenyl phosphate disodium salt hexahydrate addition. Michaelis-Menten kinetics were evaluated at 30° C. for 30 min. […] The activity value was normalized by protein content measured via the Pierce BCA Protein Assay Kit (ThermoFisher Scientific) according to the manufacturer's instructions.

Row | Structure (SMILES) | effect on osteocalcin expression (mRNA) [1] | effect on ALP activity (marker of osteoblast differentiation) [2]
1 | CC1=C(/C=C/C(C)=C/C=C/C(C)=C/C(=O)O)C(C)(C)CCC1 [vitamin A, all-trans-retinoic acid] | no significant effect | –
2 | C=C1/C(=C\C=C2/CCC[C@]3(C)[C@@H]([C@H](C)CCCC(C)(C)O)CC[C@@H]23)C[C@@H](O)C[C@@H]1O [vitamin D, 1α,25-Dihydroxyvitamin D3] | no significant effect | –
3 | CC(C)=CCC/C(C)=C/CC/C(C)=C/CC/C(C)=C/CC/C(C)=C/CC/C(C)=C/CC/C(C)=C/CC1=C(C)C(=O)c2ccccc2C1=O [vitamin K2, menaquinone-7] | – | no significant effect
